# In PubChem BioAssay (NCI):
# Values joined by “and” are separate entries in the source; they are usually repeats but may differ in a detail not shown here. Equal entries are not always repeated.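 48-hour exposure; five concentrations; linearly interpolated endpoints. GI50 is the concentration that inhibits growth by half. TGI: total growth inhibition.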
# Legend:
# Experiment in all cases: DTP human tumour cell line panel, 48 h
# 786-0 renal = test system: 786-0 renal
# A549 NSCLC = test system: A549 NSCLC
# DMS 273 small cell lung = test system: DMS 273 small cell lung
# HCT-15 colon = test system: HCT-15 colon
# HT29 colon = test system: HT29 colon
# M19-MEL melanoma = test system: M19-MEL melanoma
# MDA-MB-435 = test system: MDA-MB-435
# RXF 393 renal = test system: RXF 393 renal
# UACC-257 melanoma = test system: UACC-257 melanoma
# UACC-62 melanoma = test system: UACC-62 melanoma
Compound,TGI (786-0 renal),TGI (A549 NSCLC),TGI (DMS 273 small cell lung),TGI (HCT-15 colon),TGI (HT29 colon),TGI (M19-MEL melanoma),TGI (MDA-MB-435),TGI (RXF 393 renal),TGI (UACC-257 melanoma),TGI (UACC-62 melanoma),GI50 (786-0 renal) [µM],GI50 (HT29 colon),GI50 (MDA-MB-435),GI50 (RXF 393 renal),GI50 (UACC-257 melanoma),GI50 (A549 NSCLC) [µM],GI50 (HCT-15 colon) [µM],GI50 (UACC-62 melanoma) [µM],GI50 (M19-MEL melanoma) [µM]
COC12C(COC(N)=O)C3=C(C(=O)C(C)=C(N)C3=O)N1CC1C2N1C (stereo not given),68.5 µM,24.2 µM,5.81 µM,55.1 µM,43.2 µM,24.7 µM,28.1 µM,28.7 µM,35.6 µM,11.1 µM,–,–,–,–,–,–,–,–,–
Cc1ccc(S(=O)OCc2c(C)c(C)c(COS(=O)c3ccc(C)cc3)c(C)c2C)cc1 (stereo not given),> 100 µM,> 100 µM,> 100 µM,> 100 µM,> 100 µM,> 100 µM,–,> 100 µM,> 100 µM,> 100 µM,–,–,–,–,–,–,–,–,–
Cn1c2ccccc2c2ncc3[nH]c4ccccc4c3c21,> 100 µM,49.6 µM,34.7 µM,63.7 µM,31.1 µM,49.1 µM,–,30.6 µM,42.6 µM,41.7 µM,–,–,–,–,–,–,–,–,–
CS/C(=C(\S)c1ccccc1)c1ccccc1,> 100 µM,> 100 µM,> 100 µM,> 100 µM,> 100 µM,> 100 µM,–,> 100 µM,> 100 µM,> 100 µM,–,–,–,–,–,–,–,–,–
COc1ccc2c(c1)c[n+](C)c1c3cc(OC)c(OC)cc3ccc21,15.9 µM,10.3 µM,3.54 µM,30 µM and > 74.1 µM,2.31 µM and 15.5 µM,15.8 µM,2.98 µM and 20 µM,2.98 µM and 13.6 µM,4.36 µM and 30.8 µM,23.9 µM,2.85,1.01 µM and 3.61 µM,1.51 µM and 5.1 µM,1.5 µM and 5.8 µM,1.8 µM and 13.5 µM,–,–,–,–
CSc1nc(NC2OC(COC(C)=O)C(OC(C)=O)C(OC(C)=O)C2OC(C)=O)c(N=CC=Nc2c(NC3OC(COC(C)=O)C(OC(C)=O)C(OC(C)=O)C3OC(C)=O)nc(SC)n(C)c2=O)c(=O)n1C (stereo not given),50 µM and > 80.6 µM,> 100 µM,> 100 µM,> 100 µM,> 100 µM,> 100 µM,> 100 µM,46.2 µM and 61.5 µM,> 100 µM,> 100 µM,16.7,> 50 µM,> 50 µM,12.4 µM,> 50 µM,> 50,> 50,> 50,–
C=COC(=O)N[C@H]1CCc2cc(OC)c(OC)c(OC)c2-c2ccc(SC)c(=O)cc21,50.8 µM,72.7 µM,> 100 µM,> 100 µM,0.149 µM,> 100 µM,< 0.01 µM,3.14 µM,77.7 µM,> 75 µM,–,–,–,–,–,–,–,–,–
C/C(=N\NC(=S)N1CCCCCC1)c1ccccn1,2.17 µM and 3.12 µM,6.46 µM and 2.49 µM,1.69 µM and 2.13 µM,1.99 µM and 4.43 µM,2.52 µM and 10.6 µM,1.06 µM and 0.687 µM,3.92 µM and 1.17 µM,2.05 µM and 0.658 µM,0.83 µM and 0.969 µM,0.33 µM and 0.268 µM,0.0992,–,0.0703 µM,0.117 µM,–,< 0.0188,0.0497,–,0.109
CC(=O)N1CCC(=O)/C(=C/c2ccccc2)C1,69.6 µM,> 100 µM,> 100 µM,48.2 µM,38.8 µM,58.3 µM,–,67.6 µM,> 100 µM,82.7 µM,–,–,–,–,–,–,–,–,–
Nc1ccn(C2OC(CO)C(O)C2O)c(=O)n1 (stereo not given),> 100 µM and 388 µM and > 500 µM,–,344 µM,> 500 µM,> 500 µM,> 500 µM,> 500 µM,> 500 µM,> 500 µM,–,0.396,2.01 µM,0.671 µM,13.6 µM,14.4 µM,0.422,–,1.93,15.6
COc1cc2c3c(c1OC)-c1cc4c(cc1CC3(C#N)N(C(=O)c1ccccc1)CC2)OCO4 (stereo not given),57.7 µM,> 100 µM,> 79.4 µM,> 100 µM,> 100 µM,> 100 µM,> 100 µM,26.9 µM,> 100 µM,43.2 µM,–,–,–,–,–,–,–,–,–
COC(=O)c1s/c(=N\C(=S)N(C)C)n(-c2ccc(Cl)cc2)c1C(=O)OC,> 100 µM,> 100 µM,> 100 µM,> 100 µM,> 100 µM,> 100 µM,–,> 100 µM,> 100 µM,> 10 µM,–,–,–,–,–,–,–,–,–
